The test system of one assay is HeLa. Briefly: Cytotoxicity against human HeLa cells after 48 hrs by MTT assay. The class given is functional, cell-based.
Assay [1] concerns HT-29. Briefly: Cytotoxicity against human HT-29 cells after 48 hrs by MTT assay. In kind it is functional, cell-based.
In the next assay the test system is MCF7. Put plainly: Cytotoxicity against human MCF7 cells after 48 hrs by MTT assay. In kind it is functional, cell-based.
Assay [2] relates to MDA-MB-231. Put plainly: Cytotoxicity against human MDA-MB-231 cells after 48 hrs by MTT assay. In kind it is functional, cell-based.
A further assay has as its system MRC5. Put plainly: Cytotoxicity against human MRC5 cells after 48 hrs by MTT assay. In kind it is cell-based.
A further assay concerns A549. Put plainly: Cytotoxicity against human A549 cells after 48 hrs by MTT assay. In kind it is functional, cell-based.
Assay [3] deals with MDA-MB-231. Briefly: Induction of cytotoxic response in human MDA-MB-231 cells after 48 hrs by MTT assay. The class given is functional.
Assay [4] relates to HT-29. Put plainly: Induction of cytotoxic response in human HT-29 cells after 48 hrs by MTT assay. In kind it is functional.

Turning to `C[C@@]1(O)CS[C@@H](n2ccc(N)nc2=O)[C@@H]1O` [listing 1 of 2 here], the IC50 with HeLa (hela) turned out to be 17 µM; in the assay with HT-29 [1] (ht-29) it was 6400 µM; in the assay with MCF7 (mcf7), 139 µM; with MDA-MB-231 [2] (mda-mb-231), 10 µM; with MRC5 (mrc5), 147 µM; with A549 (a549), 9 µM.
As to `Cc1cn([C@@H]2SC[C@@](C)(O)[C@H]2O)c(=O)[nH]c1=O`, the IC50 in the assay on HeLa (Homo sapiens, HeLa, 48 h) was 214 µM; in the assay with HT-29 [1] (Homo sapiens, HT-29, 48 h) it was 5 µM; with MCF7 (Homo sapiens, MCF7, 48 h), 323 µM; with MDA-MB-231 [2] (Homo sapiens, MDA-MB-231, 48 h), 3 µM; with MRC5 (Homo sapiens, MRC5, 48 h) it was 269 µM; in the assay on A549 (Homo sapiens, A549, 48 h), 41 µM. Further, the Activity in the assay on MDA-MB-231 [3] amounted to 57%; in the assay on HT-29 [4] it was 62%.
`Cc1cn([C@H]2SC[C@](C)(O)[C@@H]2O)c(=O)[nH]c1=O`: the concentration for half-maximal inhibition (IC50) was 6870 µM in the assay with HeLa (Homo sapiens, HeLa, 48 h); 640 µM in the assay on HT-29 [1] (Homo sapiens, HT-29, 48 h); 172 µM in the assay on MCF7 (Homo sapiens, MCF7, 48 h); 52 µM with MDA-MB-231 [2] (Homo sapiens, MDA-MB-231, 48 h); 290 µM in the assay with MRC5 (Homo sapiens, MRC5, 48 h); 30 µM with A549 (Homo sapiens, A549, 48 h).
As for `C[C@@]1(O)CS[C@@H](n2ccc(=O)[nH]c2=O)[C@@H]1O`, the IC50 came out at 214 µM in the assay on HeLa (Homo sapiens, HeLa, 48 h); 8 µM with HT-29 [1] (Homo sapiens, HT-29, 48 h); 193 µM with MCF7 (Homo sapiens, MCF7, 48 h); 19 µM in the assay with MDA-MB-231 [2] (Homo sapiens, MDA-MB-231, 48 h); 630 µM with MRC5 (Homo sapiens, MRC5, 48 h); 4270 µM with A549 (Homo sapiens, A549, 48 h).
For `C[C@]1(O)CS[C@H](n2ccc(=O)[nH]c2=O)[C@H]1O`, the IC50 in the assay with HeLa (Homo sapiens, HeLa, 48 h) was determined as 4320 µM; in the assay on HT-29 [1] (Homo sapiens, HT-29, 48 h) it was 269 µM; in the assay on MCF7 (Homo sapiens, MCF7, 48 h) it was 100 µM; with MDA-MB-231 [2] (Homo sapiens, MDA-MB-231, 48 h), 14 µM; in the assay with MRC5 (Homo sapiens, MRC5, 48 h), 1000 µM; in the assay on A549 (Homo sapiens, A549, 48 h), 30 µM.
Take `C[C@]1(O)CS[C@H](n2ccc(N)nc2=O)[C@H]1O`: the concentration for half-maximal inhibition (IC50) with HeLa (Homo sapiens, HeLa, 48 h) was 12 µM; in the assay with HT-29 [1] (Homo sapiens, HT-29, 48 h), 5990 µM; in the assay on MCF7 (Homo sapiens, MCF7, 48 h) it was 13 µM; in the assay with MDA-MB-231 [2] (Homo sapiens, MDA-MB-231, 48 h), 11 µM; with MRC5 (Homo sapiens, MRC5, 48 h) it was 221 µM; in the assay with A549 (Homo sapiens, A549, 48 h), 223 µM.
With `C[C@@]1(O)CS[C@@H](n2ccc(N)nc2=O)[C@@H]1O` [listing 2 of 2 here], the 50% inhibitory concentration (IC50) in the assay on HeLa (hela) was determined as 106 µM; in the assay with HT-29 [1] (ht-29), 2270 µM; with MCF7 (mcf7) it was 1980 µM; in the assay with MDA-MB-231 [2] (mda-mb-231), 58 µM; in the assay on MRC5 (mrc5) it was 4340 µM; in the assay with A549 (a549), 1320 µM.
